Literature values as cited in patent US20050244368A1, “Pre-endoscopic use of polyethylene glycol compositions” (priority 2004, published 2005).

Details: % of adult patients (Zwas et al., 1996)

Question: With `O=P(O)(O)O` [sodium phosphate] as the compound, how does the “colonic mucosal changes mimicking inflammatory bowel disease” value read?
Answer: up to 24%
